In ChEMBL document CHEMBL3045385, “Design, synthesis and molecular modelling of novel 4-thiazolidinones of potential activity against Gram positive bacteria” (2013) one finds Activity and MIC data, which are given here for 9 compounds.

In brackets after ≈: the same amount, converted by molar mass. Activity calls are given as the source filed them. The calls are words filed in the database; no cut-off is given here.

Experiment [1] has as its system Mycobacterium tuberculosis. Put plainly: Antimycobacterium activity against Mycobacterium tuberculosis H37Rv at 100 ug/ml by Microplate Alamar Blue Assay. It counts as functional, organism-based.
In experiment [2] the test system is Salmonella typhimurium. Put plainly: Antibacterial activity against Salmonella enterica subsp. enterica serovar Typhimurium at 6.25 to 100 ug/ml after 24 hr by two-fold serial dilution method. In kind it is functional, organism-based.
For experiment [3], the system named is Candida albicans. In words: Antifungal activity against Candida albicans ATCC 10231 at 6.25 to 100 ug/ml after 7 days by two-fold serial dilution method. In kind it is functional, organism-based.
In experiment [4] the test system is Shigella sonnei. Put plainly: Antibacterial activity against Shigella sonnei ATCC 11060 at 6.25 to 100 ug/ml after 24 hr by two-fold serial dilution method. It counts as functional, organism-based.
The subject of experiment [5] is Escherichia coli. Put plainly: Antibacterial activity against Escherichia coli ATCC 25922 at 6.25 to 100 ug/ml after 24 hr by two-fold serial dilution method. In kind it is functional, organism-based.
For experiment [6], the system named is Bacillus subtilis. In words: Antibacterial activity against Bacillus subtilis ATCC 10400 at 6.25 to 100 ug/ml after 24 hr by two-fold serial dilution method. In kind it is functional, organism-based.
Experiment [7] concerns Pseudomonas aeruginosa. Put plainly: Antibacterial activity against Pseudomonas aeruginosa ATCC 27855 at 6.25 to 100 ug/ml after 24 hr by two-fold serial dilution method. In kind it is functional, organism-based.
Experiment [8] concerns Staphylococcus aureus. Put plainly: Antibacterial activity against Staphylococcus aureus ATCC 25293 at 6.25 to 100 ug/ml after 24 hr by two-fold serial dilution method. In kind it is functional, organism-based.
In experiment [9] the test system is Staphylococcus aureus. Put plainly: Antibacterial activity against Staphylococcus aureus ATCC 25293 after 24 hr by two-fold serial dilution method. In kind it is functional. Conditions: ATCC 25293, 24 h.
Experiment [10] has as its system Bacillus subtilis. In words: Antibacterial activity against Bacillus subtilis ATCC 10400 after 24 hr by two-fold serial dilution method. It counts as functional. Particulars: ATCC 10400, 24 h.

For `C/C(=N/NC(=O)C(C)Oc1cc(Cl)c(Cl)cc1Cl)c1ccc(C)cc1` (configuration not stated), the result in experiment [1], in [2], in experiment [3], in experiment [4], in [5] and in experiment [6] was inactive. Moreover, the result in experiment [7] and in [8] was inactive.

Regarding `C/C(=N/NC(=O)C(C)Oc1cc(Cl)c(Cl)cc1Cl)c1ccc(Cl)cc1` (configuration not stated), the result in [1], in experiment [2], in [3], in [4], in experiment [5] and in [6] was inactive. For the same compound, the outcome in experiment [7] and in experiment [8] was inactive.

Regarding `Cc1ccc(/C=N\NC(=O)C(C)Oc2cc(Cl)c(Cl)cc2Cl)o1` (configuration not stated), the outcome in [1], in experiment [2], in experiment [3], in [4], in experiment [5] and in experiment [6] was inactive. The outcome in experiment [7] and in experiment [8] was inactive.

As to `CC(Oc1cc(Cl)c(Cl)cc1Cl)C(=O)N/N=C\c1cccc([N+](=O)[O-])c1` (configuration not stated), the result in experiment [1], in experiment [2], in experiment [3], in experiment [4], in experiment [5] and in [6] was inactive. The outcome in experiment [7] and in [8] was inactive.

On to `C#CCN1C(=O)/C(=N/NC(=O)C(C)Oc2cc(Cl)c(Cl)cc2Cl)c2ccccc21` (configuration not stated), for which the result in experiment [1], in experiment [2], in [3], in experiment [4], in experiment [5] and in [6] was inactive. The result in experiment [7] and in [8] was inactive.

For the compound `CC(Oc1cc(Cl)c(Cl)cc1Cl)C(=O)N/N=C1/C(=O)Nc2ccccc21` (configuration not stated), the outcome in experiment [1], in experiment [2], in experiment [3], in [4], in [5] and in experiment [6] was inactive. The result in [7] and in experiment [8] was inactive.

Take `Cc1ccc(/C=N\NC(=O)C(C)Oc2cc(Cl)c(Cl)cc2Cl)s1` (configuration not stated): the outcome in experiment [1], in [2], in experiment [3], in experiment [4], in experiment [5] and in [6] was inactive. For the same compound, the outcome in [7] and in [8] was inactive.

In the case of `CC(Oc1cc(Cl)c(Cl)cc1Cl)C(=O)N/N=C\c1ccncc1` (configuration not stated), the result in experiment [1], in [2], in [3], in experiment [4], in experiment [5] and in experiment [6] was inactive. Moreover, the outcome in [7] and in experiment [8] was inactive.

For orientation: MIC means the lowest concentration found to suppress growth. Higher therefore signals weaker potency. Turning to `Cc1ccc(C2SCC(=O)N2NC(=O)C(C)Oc2cc(Cl)c(Cl)cc2Cl)o1` (configuration not stated), the MIC in experiment [9] and in experiment [10] was 12.5 µg/mL (≈ 27.8 µM) each time. The outcome in experiment [1], in experiment [2], in [3], in experiment [4], in [5] and in experiment [7] was inactive.
